Assay results published in patent publication US11465995B2, “Crystal and salt forms of tricyclic compound and preparation process thereof” (SHIJIAZHUANG SAGACITY NEW DRUG DEVELOPMENT COMPANY, LTD., priority 2018, dated 2022).
“And” between values parts separate entries of the source, which are not always exact repeats. Equal values may be shown once. Blank lines part the entries; values can stand above or below the molecule they belong to.

Experiments:
S1P1 receptor = molecular target: T1, S1P1 receptor (Homo sapiens, UniProt P21453); assay: S1P1 receptor agonistic activity test (PathHunter cell line); format: cell-based; settings: agonist mode
T1 construct: expressed in transfected cells
Experimental: I. Cells Treatment • 1. PathHunter cell line was thawed according to standard procedures. • 2. The cells were inoculated in 20 μl 384-well microplates and incubated at 37° C. for appropriate time.
II. Agonist • 1. For the agonist assay, the cells were incubated with the testing sample to induce the reaction. • 2. The stock solution had been diluted 5 times with the buffer. • 3. 5 μl of 5-fold dilution was added into the cells, which were incubated at 37° C. for 90-180 min with the vehicle concentration of 1%.
III. Signal Detection • 1. 12.5 μl or 15 μl of PathHunter detection reagent at a volume ratio of 50% was added in one portion, then incubation at room temperature was performed for 1 h to generate detection signal. • 2. The PerkinElmer Envision™ instrument was used to read the microplate for chemiluminescence signal detection.
IV. Data Analysis • 1. CBIS data analysis kit was used to analyze the activity of the compound. • 2. Calculation formula: % Activity=100%×(average RLU of testing sample−average RLU of vehicle)/(average RLU of maximum control ligand−average RLU of vehicle) The results were shown in Table 3.

[1] = Pharmacokinetic evaluation in SD rats; format: in vivo; settings: Sprague Dawley, rat, plasma, 3 mg/kg, male, intravenous injection and oral administration, Ozanimod at 3 mpk
Experimental: This Example is provided to test pharmacokinetics of compounds in SD rats.
Materials: Sprague Dawley rats (male, 200-300 g, 7-9 weeks, Shanghai SLAC)
Procedures: The rodent pharmacokinetic characteristics of the compound after intravenous injection and oral administration were tested according to standard protocol. In the test, the candidate compound was formulated as a clear solution, and the rats were given a single intravenous injection and oral administration. The intravenous and oral vehicles were a hydroxypropyl β cyclodextrin aqueous solution in a certain proportion or normal saline solution. The whole blood sample within 24 h was collected, centrifuged at 3000 g for 15 min, and the supernatant was separated to give the plasma sample. 4 volumes of acetonitrile solution containing internal standard was added to precipitate protein and after centrifugation the supernatant was collected and added with equal volume of water. After further centrifugation, the supernatant was used for injection. Quantitative analysis of blood drug concentration was done by LC-MS/MS analysis method and pharmacokinetic parameters were calculated, such as Cmax, Tmax, clearance, half-life, area under the curve of drug concentration-time, bioavailability, etc.

blood lymphocytes = assay: Effects of single oral administration on blood lymphocytes in rats; format: in vivo, SD rats; settings: for Percentage of lymphocytes in white blood cells in a unit volume of blood (%) / Rate of change of lymphocytes in blood after administration (%): mean ± SEM
Experimental: Normal SPF grade male SD rats were administered by single oral gavage. The experiment contained five groups: the vehicle control group, the reference compound Ozanimod group, Compound 1-0.3 mg/kg dose group, Compound 1-1.0 mg/kg dose group, Compound 1-3 mg/kg dose group. Blood was collected 0.5 h before administration and 4, 8, 24 h after administration, and anticoagulated with 10% K2-EDTA. The anticoagulated blood sample was placed in 4° C. environment, diluted 1:4 with normal saline, and quickly tested with a hematology analyzer to calculate the number of lymphocytes per liter of blood and the percentage in the total white blood cells. Graphpad prism 6.0 software was used to calculate the mean±standard error, and the two-way ANOVA test was used to test the significance of the difference. When p<0.05, there was a significant difference between two groups.

[2] = system: TNBS-induced acute infectious bowel disease (IBD) model; assay: Pharmacodynamic test on TNBS-induced acute infectious bowel disease (IBD) model in female SD rats; format: in vivo; set-up: Ulcer score / Inflammation score / Total injury score: scale not given here; settings: for Injury area (cm^2) / Ulcer area (cm^2) / Inflammation score / Total injury score / Ulcer score: mean ± sem; for Inflammation score / Total injury score / Ulcer score: colon pathological test
Experimental: Female SD rats were divided into 7 groups, that is, model group, prednisolone-10 mg/kg group, Ozanimod-0.3 mg/kg group, Ozanimod-1.0 mg/kg group, Compound 1-0.1 mg/kg group, Compound 1-0.3 mg/kg group, Compound 1-0.6 mg/kg group. All animals were deeply anesthetized with pentobarbital sodium, and TNBS-50% alcohol solution was inserted into the intestinal cavity from the anus for modeling. The animal's anus was squeezed, and the animal was allowed to stand upside down for 5 min. The animals were returned to the cage after assured to be leak free.
The test compounds were administered orally 1 h after modeling, once a day for 7 days. The model group was given an equal volume of drug vehicle. The animals were weighed daily before administration of the test compound and were monitored for daily fecal traits and given clinical observation scores. The day after the last administration, all animals were euthanized. The colons were collected (anal to nodular part), the length and weight of the colons were measured, and the gross anatomical scores of the lesion sizes was taken. The gross anatomical images of the colon lesions were recorded, and the tissues were fixed in 10% neutral formalin solution and were subjected to histopathological analysis.

[3] = 0.1 mg/kg oral once a day for 7 days
[4] = 0.3 mg/kg oral once a day for 7 days
[5] = 0.6 mg/kg oral once a day for 7 days
[6] = 10 mg/kg oral once a day for 7 days

T1 sequence (P21453 whole entry): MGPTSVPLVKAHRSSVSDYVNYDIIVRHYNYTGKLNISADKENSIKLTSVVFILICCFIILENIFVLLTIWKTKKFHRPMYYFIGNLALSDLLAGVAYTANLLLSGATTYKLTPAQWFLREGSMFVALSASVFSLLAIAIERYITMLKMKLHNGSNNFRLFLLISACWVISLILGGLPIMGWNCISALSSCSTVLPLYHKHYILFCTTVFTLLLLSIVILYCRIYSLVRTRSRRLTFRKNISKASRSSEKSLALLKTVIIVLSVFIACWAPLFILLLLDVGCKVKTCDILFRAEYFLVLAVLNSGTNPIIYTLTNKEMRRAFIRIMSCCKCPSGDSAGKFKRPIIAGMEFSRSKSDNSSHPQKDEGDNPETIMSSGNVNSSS

EC50 (S1P1 receptor): < 10 nM
clearance [1]: 11.5 mL/min/kg
bioavailability ([1]; read-out: Bioavailability F (%)): 85.8%
AUC ([1]; read-out: Concentration Integration AUC): 6.83 µM·h
half-life ([1]; read-out: Half-life T1/2 (converted)): 3.46 h
Compound: CC(C)Oc1ccc(-c2nc(-c3cccc4c3C[C@@H]3CC(=O)N(CCO)[C@H]43)no2)cc1C#N (single isomer, unassigned) [Compound 1]
Percentage of lymphocytes in white blood cells in a unit volume of blood (%) (blood lymphocytes; 0.3 mg/kg single oral, 4 h): 52.08 ± 3.35^&&& %
Rate of change of lymphocytes in blood after administration (%) (blood lymphocytes; 0.3 mg/kg single oral, 4 h, vs same group before administration): −59.57 ± 2.01 %
maximum decreasing rate of the number of blood lymphocytes (blood lymphocytes; 0.3 mg/kg single oral, 8 h): 66.87%
Percentage of lymphocytes in white blood cells in a unit volume of blood (%) (blood lymphocytes; 0.3 mg/kg single oral, 8 h): 46.71 ± 3.72^*#&&&& %
Rate of change of lymphocytes in blood after administration (%) (blood lymphocytes; 0.3 mg/kg single oral, 8 h): −66.87 ± 1.97 %
blood lymphocyte decreasing rate (blood lymphocytes; 0.3 mg/kg single oral, 24 h): −44.98%
Percentage of lymphocytes in white blood cells in a unit volume of blood (%) (blood lymphocytes; 0.3 mg/kg single oral, 24 h): 63.86 ± 1.70%
Rate of change of lymphocytes in blood after administration (%) (blood lymphocytes; 0.3 mg/kg single oral, 24 h): 44.98 ± 16.62 %
Percentage of lymphocytes in white blood cells in a unit volume of blood (%) (blood lymphocytes; 0.3 mg/kg single oral, −0.5 h (before administration)): 59.12 ± 2.19%
Percentage of lymphocytes in white blood cells in a unit volume of blood (%) (blood lymphocytes; 1.0 mg/kg single oral, 4 h): 36.82 ± 2.33^****$$$ %
Rate of change of lymphocytes in blood after administration (%) (blood lymphocytes; 1.0 mg/kg single oral, 4 h): −71.25 ± 1.93 %
maximum decreasing rate of the number of blood lymphocytes (blood lymphocytes; 1.0 mg/kg single oral, 8 h): 83.09%
Percentage of lymphocytes in white blood cells in a unit volume of blood (%) (blood lymphocytes; 1.0 mg/kg single oral, 8 h): 29.89 ± 2.56^****$$$$ %
Rate of change of lymphocytes in blood after administration (%) (blood lymphocytes; 1.0 mg/kg single oral, 8 h): −83.09 ± 1.25 %
blood lymphocyte decreasing rate (blood lymphocytes; 1.0 mg/kg single oral, 24 h): 0.22%
Percentage of lymphocytes in white blood cells in a unit volume of blood (%) (blood lymphocytes; 1.0 mg/kg single oral, 24 h): 61.62 ± 1.61%
Rate of change of lymphocytes in blood after administration (%) (blood lymphocytes; 1.0 mg/kg single oral, 24 h): −0.22 ± 6.87^**#$$ %
Percentage of lymphocytes in white blood cells in a unit volume of blood (%) (blood lymphocytes; 1.0 mg/kg single oral, −0.5 h (before administration)): 59.49 ± 1.01%
Percentage of lymphocytes in white blood cells in a unit volume of blood (%) (blood lymphocytes; 3.0 mg/kg single oral, 4 h): 34.03 ± 3.81^****#$$$$ %
Rate of change of lymphocytes in blood after administration (%) (blood lymphocytes; 3.0 mg/kg single oral, 4 h): −78.97 ± 0.91 %
maximum decreasing rate of the number of blood lymphocytes (blood lymphocytes; 3.0 mg/kg single oral, 8 h): 85.92%
Percentage of lymphocytes in white blood cells in a unit volume of blood (%) (blood lymphocytes; 3.0 mg/kg single oral, 8 h): 26.19 ± 2.81^****$$$$ %
Rate of change of lymphocytes in blood after administration (%) (blood lymphocytes; 3.0 mg/kg single oral, 8 h): −85.92 ± 1.26 %
blood lymphocyte decreasing rate (blood lymphocytes; 3.0 mg/kg single oral, 24 h): 55.15%
Percentage of lymphocytes in white blood cells in a unit volume of blood (%) (blood lymphocytes; 3.0 mg/kg single oral, 24 h): 57.05 ± 2.49%
Rate of change of lymphocytes in blood after administration (%) (blood lymphocytes; 3.0 mg/kg single oral, 24 h): −55.15 ± 3.32^****$$$$& %
Percentage of lymphocytes in white blood cells in a unit volume of blood (%) (blood lymphocytes; 3.0 mg/kg single oral, −0.5 h (before administration)): 62.35 ± 2.26%
Injury area (cm^2) [2, 3]: 6.09 ± 0.94 cm^2
Ulcer area (cm^2) [2, 3]: 2.42 ± 0.66 cm^2
Injury area (cm^2) [2, 4]: 5.34 ± 0.90 cm^2
Ulcer area (cm^2) [2, 4]: 2.18 ± 0.84 cm^2
Injury area (cm^2) [2, 5]: 3.42 cm^2 and 3.42 ± 0.73* cm^2
Ulcer area (cm^2) [2, 5]: 0.94 ± 0.55 cm^2
symptoms of colon ulcers and edema (dissection at the end of the experiment) ([2]; 0.6 mg/kg, compared to the model group): reduced compared to the model group
Inflammation score ([2]; 0.1 mg/kg): 3.57 ± 0.20
Total injury score ([2]; 0.1 mg/kg): 6.14 ± 0.40
Ulcer score ([2]; 0.1 mg/kg): 2.57 ± 0.20
Inflammation score ([2]; 0.3 mg/kg): 3.57 ± 0.37
Total injury score ([2]; 0.3 mg/kg): 6.14 ± 0.63
Ulcer score ([2]; 0.3 mg/kg): 2.57 ± 0.30

Compound: C[C@]12C=CC(=O)C=C1CC[C@@H]1[C@@H]2[C@@H](O)C[C@@]2(C)[C@H]1CC[C@]2(O)C(=O)CO [Prednisolone]
Injury area (cm^2) [2, 6]: 4.45 ± 0.82 cm^2
Ulcer area (cm^2) [2, 6]: 1.58 ± 0.53 cm^2
colon ulcers (dissection at the end of the experiment) ([2]; 10 mg/kg, compared to the model group): not reduced
Inflammation score ([2]; 10 mg/kg): 3.00 ± 0.33
Total injury score ([2]; 10 mg/kg): 5.00 ± 0.63
Ulcer score ([2]; 10 mg/kg): 2.00 ± 0.38
